In patent US20100267638A1, “EXOSITE-DIRECTED THROMBIN INHIBITORS” (CLEVELAND STATE UNIVERSITY, priority 2003, published 2010):
Values joined by “and” are separate entries in the source; they are usually repeats but may differ in a detail not shown here. Identical values can stand only once. “Also recorded” adds a separate entry of the source. No end group written: not given here.

Tests used:
prothrombinase [1] = target: T1, prothrombinase (Homo sapiens, UniProt P00734); test: Assay measuring thrombin formation (prothrombinase inhibition by peptides, DAPA fluorescence); format: biochemical; conditions: for Ki: calculated from IC50=Ki(1+S0/Km), Km 0.4 μM, S0 350 nM prothrombin, read-out: Ki of prothrombinase inhibition; for IC50: factor Va 4 nM, factor Xa 10 nM, prothrombin 350 nM, PCPS 10 μM, peptide preincubated with factor Va; for type of inhibition of prothrombinase with respect to prothrombin: kinetic analyses, increasing prothrombin and peptide; for effect on prothrombinase / factor Va cofactor activity at fixed concentration: peptide 100 μM
T1 construct: purchased Haematologic Technologies Inc. (Essex Junction, Vt.)
Description: Assay measuring thrombin formation. The formation of thrombin was analyzed using the fluorescent thrombin inhibitor DAPA as described using a Perkin Elmer LS-50B Luminescence Spectrometer (Perkin-Elmer LLC, Norwalk Conn.) with λex=280 nm, λem=550 nm and a 500 nm long pass filter in the emission beam (Schott KV-500). […] In all cases peptides were preincubated with factor tor Va prior to the assay as described in the legend to the figures. The final concentration of factor tor Va in the mixture was 4 nM with factor Xa at 10 nM, prothrombin at 350 nM, DAPA at 700 nM, in the presence of PCPS vesicles (10 μM). The initial rate of thrombin formation (nM IIa·min^−1) was calculated as described during the initial 5-10 sec of the reaction. To verify if the peptides have any effect on the active-site of thrombin, control experiments were performed as follows: a given peptide (at 100 μM) was incubated in the assay buffer containing DAPA (700 nM); the base line was monitored for 30 sec; thrombin (350 nM) was then added to the mixture and the fluorescent intensity resulting from the complexation of DAPA with the active site of thrombin was monitored for 60 sec. The slope of the reaction measuring thrombin formation in the presence of a given peptide during the first 5 sec was calculated and compared to the slope of a reaction obtained in the absence of peptide. It is noteworthy that under the conditions employed the thrombin-DAPA interaction occurred fast and the calculated slope of the reaction was sensitive to all parameters used. […] All experiments were performed in triplicates or as indicated. The concentration of each peptide given in the figures and figure legends is their final concentration in the assay. […] In some cases the data were also analyzed and plotted using DeltaGraph (DeltaPoint, Monterey, Calif.).
Specifically, peptides were incubated with factor tor Va as described herein at a fixed concentration (100 μM). The percent of factor tor Va cofactor activity was calculated by comparing the activity of prothrombinase in the presence of a given peptide to the activity of prothrombinase determined in a control reaction in the absence of peptide and in the presence of factor Xa. […] The control peptide represents a pentadecapeptide from the middle portion of factor tor Va heavy chain (P15H) (SEQ ID NO. 22). […] All other peptides from region 680-709 had no significant effect on prothrombinase activity.
HC3 represents amino acid sequence 690-699 of factor tor Va heavy chain; HC4 contains the sequence 695-704 of human factor tor Va heavy chain; P15H represents amino acid sequence 337-351 from the middle portion of human factor tor Va heavy chain. […] The concentration of each peptide given on the x axis represents its final concentration in the prothrombinase mixture. […] Thus, both peptides show similar inhibitory potential.

[2] = target: T2, [OG488]-EGR-hXa-human factor tor Va (Homo sapiens, UniProt P00742); test: Fluorescence anisotropy of preformed membrane-bound [OG488]-EGR-hXa-factor Va complex; format: binding; conditions: up to 300 μM peptide
T2 construct: purchased Haematologic Technologies Inc. (Essex Junction, Vt.)
Description: Fluorescence Anisotropy measurements. Fluorescence anisotropy of [OG488]-EGR-hXa was measured using a Perkin Elmer LS-50B Luminescence Spectrometer in L-format as recently described. Anisotropy measurements were performed in a quartz cuvette under constant stirring (low) with λex=490 nm, λem=520 nm with a long pass filter (Schott KV-520) in the emission beam. […] The concentration of peptide given in each graph is the final concentration of the peptide in the assay mixture. […] In some cases the data were also plotted using DeltaGraph (DeltaPoint, Monterey, Calif.).
HC3 and HC4 were also tested for their ability to interfere with the fluorescence anisotropy of a preformed complex composed of membrane-bound [OG488]-EGR-hXa-human factor tor Va as described. […] The peptides must thus impair another function of the cofactor within prothrombinase.

[3] = target: T3, active-site-immobilized thrombin (Homo sapiens, UniProt P00734); test: Direct binding of the peptides to thrombin-agarose (chromatography); conditions: 400 μg peptide, 2.5 ml column, elution 2M NaCl
T3 construct: Factor Xa cleaves prothrombin to form thrombin; purchased Haematologic Technologies Inc. (Essex Junction, Vt.)
Description: Direct binding of the peptides to thrombin. Thrombin was immobilized onto agarose through the active site as described. Peptide solutions of HC1-HC5 (SEQ ID NO. 2-6, respectively), D13R (SEQ ID NO. 21), DYDYQ (SEQ ID NO. 11), and P15H (SEQ ID NO. 22) were dissolved in water to a given concentration and then diluted in 20 mM Hepes, 0.1 M NaCl, pH 7.4 in a manner that 400 μg was contained in each starting solution. In control experiments it was determined that the maximum amount of peptide that could be retained by the thrombin-agarose column was 400 μg. Since some of the peptides contain aromatic amino acid residues, their concentration was also measured by optical density.
Mass spectrometry instruments and conditions. The identity of all peptides found in the flow-through or the elution of the thrombin-agarose column was verified by mass spectrometry. Since the peptides were in a buffer solution, we used Liquid Chromatography/Mass Spectrometry (LC/MS) for their identification. In this procedure peptides are first separated from the salt content of the buffer using an HPLC system (HP 1100, HPLC gradient system, Agilent Technologies, Palo Alto Calif.) with a C18 column (1 mm×15 cm, GraceVydac, Hesperia Calif.) with buffers A (0.3% acetic acid in water) and B (0.3% acetic acid in acetonitrile). The elution of the column was monitored with a Micromass Quatro II ESI-Triple Quadrupole Mass Spectrometer (Waters, Milford Mass.). The data were collected using a Compaq Professional Workstation AP200 (Hewlett-Packard, Palo Alto Calif.) and analyzed by the software MassLynx v3.3 (Waters, Milford Mass.).
Direct interaction of hirudin-like peptides from factor tor Va heavy chain With thrombin-agarose. To ascertain that the peptides of interest are inhibitory of prothrombinase activity and contain a binding site for thrombin, the interaction of all peptides with active-site-immobilized thrombin was studied in chromatographic experiments and is shown in FIG. 5. In FIG. 5, small scale chromatography of hirudin-like peptides was performed on a 2.5 ml thrombin-agarose. Each run represents 400 μg of peptide. This amount of peptide was determined to saturate the specific sites of thrombin of the column used (2.5 ml). Elution was performed with 2M NaCl and was started at the point indicated by the arrow (fraction #30). The presence of the peptides in the corresponding fractions was monitored by absorbance at 280 nm (shown on the y axis) and by LC/MS (inset). […] Specifically, these peptides were treated similarly to all other peptides and similar fractions were collected. Aliquots from fractions #7 and #35 from each separate experiment were submitted to LC/MS analysis as described herein (depicted by the hatched arrows at the bottom of the chromatogram). The results from tube #7 from three chromatograms are depicted. The data are presented as % intensity of the signal as a function of the mass of the peptide divided by the charge (m/z). FIG. 5A, HC1 (Mr calculated 1268); FIG. 5B, HC2 (Mr calculated 1132); FIG. 5C, HC5 (Mr calculated 1053). The spectrum of HC1 has two major peaks: at 635.5 and at 424, and one minor peak at 1270 (1268+1). The peak at 635.5 represents the peptide (mass/charge) with two positive charges ([…]) i.e. [(1268+2=1270)]/2=635 whereas, the peak at 424 represents HC1 with three positive charges ([…]) i.e. [(1268+3=1271)]/3=424. […] HC5 spectrum has two major peaks: one at 528 and one at 352. The peak at 528 represents the peptide with two positive charges ([…]) i.e. [(1053+2=1055)]/2=527.5 while, the other peak represents HC5 with three positive charges ([M+31-]^2+) i.e. [(1053+3=1056)]/3=352. The minor peak at 1054 represents the peptide with one charge. It is noteworthy, that in gas phase the number of protons attached to each peptide depends on the number (quantity) of basic residues contained in each peptide. […] Thus, HC1 and HC5 are more likely to bind two or three protons than HC2. […]

[4] = test system: factor V deficient plasma; test: Clotting activity of recombinant factor V molecules
Description: Determination of factor V/tor Va clotting activity of the recombinant molecules. Cofactor activity of wild type and mutant molecules was measured in a clotting assay using factor V deficient plasma prior and after activation by thrombin (15 min, 37° C.) and RVV-V activator (2 hr, 37° C.) as described. The values were standardized to the percentage of control. A linear semi-log graph was constructed using known concentrations of purified factor V (U/ml as a function of clotting time). The assay endpoint was determined by visualization of the fibrin clot. The activity of the factor VNa solution (U/ml) was determined by extrapolation from the graph. The concentration of the recombinant molecules was determined by a recently described ELISA. Finally, the numbers were combined to obtain the specific activity of the recombinant factor V solutions (U/mg).

prothrombinase [5] = test: Prothrombinase assay using purified reagents and chromogenic substrate (cofactor activity of recombinant factor Va species); conditions: activated with RVV-V activator or factor Xa

T2 sequence (P00742 41-179 limits assumed): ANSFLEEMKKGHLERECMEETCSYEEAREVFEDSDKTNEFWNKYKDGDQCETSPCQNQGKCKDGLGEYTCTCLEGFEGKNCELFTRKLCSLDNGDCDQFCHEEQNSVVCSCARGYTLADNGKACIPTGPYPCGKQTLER
T2 sequence (P00742 235-488 limits assumed): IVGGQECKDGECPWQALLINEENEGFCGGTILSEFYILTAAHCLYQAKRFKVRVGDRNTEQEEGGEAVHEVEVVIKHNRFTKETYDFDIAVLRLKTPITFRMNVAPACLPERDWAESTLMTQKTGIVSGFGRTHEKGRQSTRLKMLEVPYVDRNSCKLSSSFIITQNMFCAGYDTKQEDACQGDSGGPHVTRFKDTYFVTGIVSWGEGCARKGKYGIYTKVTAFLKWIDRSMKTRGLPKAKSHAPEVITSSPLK

DYDYQNRLAA [HC4]
Vmax of prothrombinase in presence of increasing peptide (prothrombinase [1]; HC4 0.5-2 μM, increasing prothrombin): ~525±30 nM IIa/min | Ki (prothrombinase [1]): 5.3 µM and ~5.3 µM | IC50 (prothrombinase [1]): 10 µM and ~10 µM | type of inhibition of prothrombinase with respect to prothrombin (prothrombinase [1]): competitive type of inhibition; also recorded: competitive inhibitors | effect on prothrombinase / factor Va cofactor activity at fixed concentration (prothrombinase [1]): inhibited prothrombinase; also recorded: complete inhibition | interference with binding of factor Va to [OG488]-EGR-hXa (anisotropy) [2]: No significant decrease; also recorded: unable to interfere with the binding of factor tor Va | interaction with immobilized thrombin (thrombin-agarose) [3]: eluted from the column with high-salt buffer; also recorded: interact with immobilized thrombin

EESDADYDYQ [HC3]
Ki (prothrombinase [1]): 6.3 µM and ~6.3 µM | IC50 (prothrombinase [1]): 12 µM and ~12 µM | type of inhibition of prothrombinase with respect to prothrombin (prothrombinase [1]): competitive inhibitors | effect on prothrombinase / factor Va cofactor activity at fixed concentration (prothrombinase [1]): inhibited prothrombinase; also recorded: complete inhibition | interference with binding of factor Va to [OG488]-EGR-hXa (anisotropy) [2]: No significant decrease; also recorded: unable to interfere with the binding of factor tor Va | interaction with immobilized thrombin (thrombin-agarose) [3]: eluted from the column with high-salt buffer; also recorded: interact with immobilized thrombin

Factor VaRVV^2K2F: quadruple mutant activated with RVV-V activator
ability to promote clotting [4]: unable to promote clotting | Activity ([4]; factor V species at 2.5 nM): 0.002 U/ml | Specific activity ([4]; factor V species at 2.5 nM): 2.4 U/mg | clotting time ([4]; factor V species at 2.5 nM): 73.1 ± 4 s | times less cofactor activity than wild type molecule activated under similar conditions (prothrombinase [5]): ~22 times
